Results as given in US20100160359A1, “Modulators of Metabolism and the Treatment of Disorders Related Thereto” (ARENA PHARMACEUTICALS, INC., priority 2005, published 2010).
Converted amounts (≈) assume the structure as drawn.

Columns and labels:
Male Sprague Dawley rats = experiment: Oral glucose tolerance test (oGTT) in rats; type: in vivo; conditions: rat oGTT, dextrose 3 g/kg
Experimental: General Procedure—Oral Glucose Tolerance Test (oGTT)
Male Sprague Dawley rats (Harlan, San Diego, Calif.) weighing approximately 350-375 g were fasted for 16 hours and randomly grouped (n=6) to receive a RUP3 agonist at 0.3, 3 or 30 mg/kg. Compounds were delivered orally via a gavage needle (p.o., volume 2 mL/kg). At time 0, levels of blood glucose were assessed using a glucometer (Accu-Chek Advantage, Roche Diagnostics), and rats were administered either vehicle (20% hydroxypropyl-beta-cyclodextrin) or test compound. Thirty minutes after administration of test compound, levels of blood glucose were again assessed, and rats were administered dextrose orally at a dose of 3 g/kg. Blood glucose measurements were then taken 30 min, 60 min, and 120 min after this time.

CYP2C19 = CYP2C19 (Homo sapiens, UniProt P33261); experiment: P450 inhibition screening assay, CYP2C19; type: in vitro ADME; conditions: cDNA expressed human enzyme, fluorescent substrate DBF
Chain of CYP2C19 (P33261 whole entry): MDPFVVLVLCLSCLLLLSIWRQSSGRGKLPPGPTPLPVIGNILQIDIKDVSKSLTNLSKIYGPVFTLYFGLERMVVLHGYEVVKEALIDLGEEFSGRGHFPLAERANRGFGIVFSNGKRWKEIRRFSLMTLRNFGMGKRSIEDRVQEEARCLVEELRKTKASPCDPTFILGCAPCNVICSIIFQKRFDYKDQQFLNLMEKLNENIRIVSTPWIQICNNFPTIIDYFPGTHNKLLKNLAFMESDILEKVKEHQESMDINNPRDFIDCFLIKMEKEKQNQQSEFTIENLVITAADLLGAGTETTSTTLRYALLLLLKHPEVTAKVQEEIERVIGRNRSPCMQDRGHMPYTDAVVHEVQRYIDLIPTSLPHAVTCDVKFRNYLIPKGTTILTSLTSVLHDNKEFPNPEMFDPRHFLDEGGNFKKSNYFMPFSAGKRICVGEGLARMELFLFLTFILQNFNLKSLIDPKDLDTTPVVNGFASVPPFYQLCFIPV
Experimental: (§1) The P450 inhibition screening assay was performed in 96-well microtiter plates by using cDNA expressed human enzymes (CYP1A2, 2C9, 2C19, 2D6 and 3A4). […] The enzymatic reaction was initiated by adding individual P450 enzymes pre-mixed with P450-specific fluorescent substrates, and stopped by adding acetonitrile (or NaOH for DBF assays) to the reaction mixture after incubation at 37° C. for a given amount of time. The fluorescence of metabolites was measured on a Biotek fluorescence reader. The results were expressed as inhibition percentage relative to the control (no test compound). IC50 values were estimated from the concentration response curve. […] Test compounds are classified into three categories based on their IC50 values.

CYP2C9 = CYP2C9 (Homo sapiens, UniProt P11712); experiment: P450 inhibition screening assay, CYP2C9; type: in vitro ADME; conditions: cDNA expressed human enzyme, fluorescent substrate DBF; read-out: IC50 against the CYP2C9 enzyme
Chain of CYP2C9 (P11712 whole entry): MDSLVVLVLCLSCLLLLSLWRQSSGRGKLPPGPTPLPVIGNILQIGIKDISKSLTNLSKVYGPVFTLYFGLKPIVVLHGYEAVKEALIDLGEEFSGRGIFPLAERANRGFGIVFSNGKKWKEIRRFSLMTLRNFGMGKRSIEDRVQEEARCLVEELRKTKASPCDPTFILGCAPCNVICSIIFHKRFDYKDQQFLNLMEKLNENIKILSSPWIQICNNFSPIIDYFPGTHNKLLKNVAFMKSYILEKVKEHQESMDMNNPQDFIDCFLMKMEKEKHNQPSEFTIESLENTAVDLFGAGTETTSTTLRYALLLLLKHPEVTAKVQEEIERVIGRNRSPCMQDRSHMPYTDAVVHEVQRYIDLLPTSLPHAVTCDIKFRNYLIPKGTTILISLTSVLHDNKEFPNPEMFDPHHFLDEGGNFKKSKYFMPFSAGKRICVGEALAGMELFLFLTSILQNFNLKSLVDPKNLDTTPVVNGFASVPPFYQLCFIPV
Experimental: as §1

CYP3A4 = CYP3A4 (Homo sapiens, UniProt P08684); experiment: P450 inhibition screening assay, CYP3A4; type: in vitro ADME; conditions: cDNA expressed human enzyme, fluorescent substrates
Chain of CYP3A4 (P08684 whole entry): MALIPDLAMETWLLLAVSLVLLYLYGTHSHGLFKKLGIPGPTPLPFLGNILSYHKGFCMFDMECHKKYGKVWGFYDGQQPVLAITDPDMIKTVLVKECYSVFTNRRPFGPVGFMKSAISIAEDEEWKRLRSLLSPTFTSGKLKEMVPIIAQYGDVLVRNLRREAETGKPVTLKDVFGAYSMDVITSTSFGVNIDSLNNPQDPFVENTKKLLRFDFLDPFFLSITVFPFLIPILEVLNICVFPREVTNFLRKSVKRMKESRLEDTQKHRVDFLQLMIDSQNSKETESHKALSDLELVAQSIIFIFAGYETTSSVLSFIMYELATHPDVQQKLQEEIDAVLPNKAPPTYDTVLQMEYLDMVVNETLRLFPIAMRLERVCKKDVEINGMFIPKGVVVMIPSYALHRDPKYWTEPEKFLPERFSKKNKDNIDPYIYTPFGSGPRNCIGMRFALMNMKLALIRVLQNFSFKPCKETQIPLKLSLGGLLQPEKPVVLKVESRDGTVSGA
Experimental: as §1

CYP1A2 = target: T1, CYP1A2 (Homo sapiens, UniProt P05177); experiment: P450 inhibition screening assay, CYP1A2; type: in vitro ADME; conditions: cDNA expressed human enzyme, fluorescent substrate CEC
T1 sequence (P05177 1-516): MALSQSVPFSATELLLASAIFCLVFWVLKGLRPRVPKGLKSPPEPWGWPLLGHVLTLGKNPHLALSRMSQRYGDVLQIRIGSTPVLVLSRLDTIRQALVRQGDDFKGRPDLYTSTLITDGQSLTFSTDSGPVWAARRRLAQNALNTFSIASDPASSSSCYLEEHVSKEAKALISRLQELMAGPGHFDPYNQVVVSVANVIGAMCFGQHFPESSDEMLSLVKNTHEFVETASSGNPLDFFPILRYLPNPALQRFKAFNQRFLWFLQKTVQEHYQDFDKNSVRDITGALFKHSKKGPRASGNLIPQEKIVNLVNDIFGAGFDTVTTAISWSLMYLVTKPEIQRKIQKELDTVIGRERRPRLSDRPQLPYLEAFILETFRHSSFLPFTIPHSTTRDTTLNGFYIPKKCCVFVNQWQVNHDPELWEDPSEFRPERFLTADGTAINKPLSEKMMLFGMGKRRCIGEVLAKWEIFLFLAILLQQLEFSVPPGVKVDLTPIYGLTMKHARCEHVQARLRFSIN
Experimental: as §1

CYP2D6 = CYP2D6 (Homo sapiens, UniProt P10635); experiment: P450 inhibition screening assay, CYP2D6; type: in vitro ADME; conditions: cDNA expressed human enzyme, fluorescent substrate AMMC
Chain of CYP2D6 (P10635 whole entry): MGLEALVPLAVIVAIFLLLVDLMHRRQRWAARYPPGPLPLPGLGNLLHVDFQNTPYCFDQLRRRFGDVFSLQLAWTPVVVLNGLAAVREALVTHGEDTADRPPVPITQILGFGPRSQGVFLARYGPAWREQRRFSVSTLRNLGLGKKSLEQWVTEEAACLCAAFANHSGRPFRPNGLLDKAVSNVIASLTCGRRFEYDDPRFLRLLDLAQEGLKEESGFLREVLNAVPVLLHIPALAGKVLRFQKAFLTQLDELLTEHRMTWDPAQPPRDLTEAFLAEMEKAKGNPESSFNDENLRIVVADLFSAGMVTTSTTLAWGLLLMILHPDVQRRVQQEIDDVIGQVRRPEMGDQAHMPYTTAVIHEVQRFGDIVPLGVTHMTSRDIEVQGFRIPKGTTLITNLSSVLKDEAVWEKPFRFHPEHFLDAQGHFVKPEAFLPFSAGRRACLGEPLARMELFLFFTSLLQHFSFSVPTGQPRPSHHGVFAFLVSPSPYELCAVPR
Experimental: as §1

[1] = Solubility determination in water (HPLC); type: physicochemical; conditions: thermodynamic from solid, about 25° C., equilibrated no less than 12 hours, read-out: aqueous solubility
Experimental: The vial contents were mixed for 30 seconds using a VWR mini vortexter followed by sonication (Branson 1510) for 1 minutes. Vials were placed into a constant temperature bath (i.e., about 25° C.) and allowed to equilibrate for no less than 12 hours. The resulting suspensions were transferred to eppendorf tubes each equipped with a 0.2 μm nylon filter (Costar 8168) and were centrifuged for 10 minutes at 14,000 rpms. The supernatant from each eppendorf tube was collected and diluted with HPLC grade acetonitrile with dilution factor of 200, 400 or 500. Each solution was analyzed by an HPLC method. […]
Quantification was effected by comparison of the HPLC peak area for each test solution with the peak area taken from a standard plot of concentration versus peak area for standards of known concentration. As is conventional, the standard concentrations for 4-[5-methyl-6-(2-methyl-pyridin-3-yloxy)-pyrimidin-4-yloxy]piperidine-1-carboxylic acid isopropyl ester were selected to fall within a linear range of concentration versus absorbance for the UV detector employed. […]

Cc1ncccc1Oc1ncnc(OC2CCN(C(=O)OC(C)C)CC2)c1C [4-[5-methyl-6-(2-methyl-pyridin-3-yloxy)-pyrimidin-4-yloxy]-piperidine-1-carboxylic acid isopropyl ester]
Mean % Inhibition of Glucose Excursion (Male Sprague Dawley rats; 0.3 mg/Kg p.o.): 22% | Mean % Inhibition of Glucose Excursion (Male Sprague Dawley rats; 3 mg/Kg p.o.): 24% | Mean % Inhibition of Glucose Excursion (Male Sprague Dawley rats; 30 mg/Kg p.o.): 70% | IC50 (CYP2C19): ~10 µM | IC50 (CYP2C9): > 15 µM | IC50 (CYP3A4): > 40 µM | IC50 (CYP1A2): > 40 µM | IC50 (CYP2D6): > 40 µM | solubility [1]: ~40 mg/mL (≈ 104 mM)
